Key:
HIV-1LAI = experiment: Antiviral assay in MT-2 human T-lymphoid cells exposed to HIV-1LAI; assay type: cell-based; conditions: MT-2 cells
[1] = test system: highly drug-resistant HIV-1 variants; experiment: Antiviral activity against the panel of highly drug-resistant HIV-1 variants; assay type: cell-based; conditions: for ability to block replication of highly PI-resistant HIV-1 variants (in words): panel of Table 3
HIV-1DRV^RP30 = assay type: cell-based; conditions: HIV-1DRV^RP30, MT-4 cells
HIV-1ATV-5 μM = assay type: cell-based; conditions: MT-4 cells
HIV-1 protease = HIV-1 protease (Human immunodeficiency virus type 1 group M subtype B, UniProt P04585); experiment: HIV-1 protease inhibition assay; assay type: biochemical; conditions: compared to 5b with the enantiomeric P2 ligand

CC(C)CN(C[C@@H](O)[C@H](Cc1cc(F)cc(F)c1)NC(=O)O[C@H]1C[C@H]2CO[C@H]3OC1C[C@@H]23)S(=O)(=O)c1ccc2nc(NC3CC3)sc2c1 [inhibitor 5d, (1S,3aR,5S,7aS)-Octahydro-1,6-epoxyisobenzofuran-5-yl((2S,3R)-4-((2-(Cyclopropylamino)-N-isobutylbenzo[d]-thiazole)-6-sulfonamido)-1-(3,5-difluorophenyl)-3-hydroxy-butan-2-yl)carbamate]
fold reduction of antiviral activity compared to inhibitor 4d (HIV-1LAI): ~25 fold

CC(C)CN(C[C@@H](O)[C@H](Cc1ccccc1)NC(=O)O[C@H]1C[C@H]2CO[C@H]3OC1C[C@@H]23)S(=O)(=O)c1ccc2nc(NC(C)C)oc2c1 [inhibitor 5c, (1S,3aR,5S,7aS)-Octahydro-1,6-epoxyisobenzofuran-5-yl((2S,3R)-3-Hydroxy-4-((N-isobutyl-2-(isopropylamino)benzo-[d]oxazole)-6-sulfonamido)-1-phenylbutan-2-yl)carbamate]
ability to block replication of highly PI-resistant HIV-1 variants (in words) [1]: failed to block replication | fold improvement of antiviral activity compared to inhibitor 4c (HIV-1LAI): over 5 fold

COC(=O)N[C@H](C(=O)N[C@@H](Cc1ccccc1)[C@@H](O)CN(Cc1ccc(-c2ccccn2)cc1)NC(=O)[C@@H](NC(=O)OC)C(C)(C)C)C(C)(C)C [ATV, atazanavir]
ability to block replication of highly PI-resistant HIV-1 variants (in words) [1]: unable to suppress the replication | fold-change in IC50 compared to wild-type HIV-1NL4-3 (HIV-1DRV^RP30): > 250 fold | fold-change in IC50 compared to wild-type HIV-1NL4-3 (HIV-1ATV-5 μM): > 250 fold

CC(C)CN(C[C@@H](O)[C@H](Cc1ccc(F)cc1)NC(=O)OC1C[C@@H]2CO[C@@H]3OC1C[C@H]23)S(=O)(=O)c1ccc2nc(NC3CC3)sc2c1 (stereo partly drawn) [inhibitor 4f, (1R,3aS,7aR)-Octahydro-1,6-epoxyisobenzofuran-5-yl((2S,3R)-4-((2-(Cyclopropylamino)-N-isobutylbenzo[d]-thiazole)-6-sulfonamido)-1-(4-fluorophenyl)-3-hydroxybutan-2-yl)carbamate]
fold improvement of antiviral activity compared to inhibitor 4b (HIV-1LAI): over 7 fold

CC(C)CN(C[C@@H](O)[C@H](Cc1ccccc1)NC(=O)OC1C[C@@H]2CO[C@@H]3OC1C[C@H]23)S(=O)(=O)c1ccc2nc(NC3CC3)sc2c1 (stereo partly drawn) [inhibitor 4b, (1R,3aS,7aR)-Octahydro-1,6-epoxyisobenzofuran-5-yl((2S,3R)-4-((2-(Cyclopropylamino)-N-isobutylbenzo[d]-thiazole)-6-sulfonamido)-3-hydroxy-1-phenylbutan-2-yl)-carbamate]
fold better enzyme Ki than inhibitor 5b (HIV-1 protease): ~10 fold

CC(C)CN(C[C@@H](O)[C@H](Cc1ccc(F)cc1)NC(=O)O[C@H]1C[C@H]2CO[C@H]3OC1C[C@@H]23)S(=O)(=O)c1ccc2nc(NC3CC3)sc2c1 [inhibitor 5f, (1S,3aR,5S,7aS)-Octahydro-1,6-epoxyisobenzofuran-5-yl((2S,3R)-4-((2-(Cyclopropylamino)-N-isobutylbenzo[d]-thiazole)-6-sulfonamido)-1-(4-fluorophenyl)-3-hydroxybutan-2-yl)carbamate]
fold improvement of antiviral activity compared to inhibitor 5b (HIV-1LAI): over 4 fold

CC(C)CN(C[C@@H](O)[C@H](Cc1cc(F)cc(F)c1)NC(=O)OC1C[C@@H]2CO[C@@H]3OC1C[C@H]23)S(=O)(=O)c1ccc2nc(NC3CC3)sc2c1 (stereo partly drawn) [inhibitor 4d, (1R,3aS,7aR)-Octahydro-1,6-epoxyisobenzofuran-5-yl((2S,3R)-4-((2-(Cyclopropylamino)-N-isobutylbenzo[d]-thiazole)-6-sulfonamido)-1-(3,5-difluorophenyl)-3-hydroxybutan-2-yl)carbamate]
IC50 ([1]; Human immunodeficiency virus 1, read-out: antiviral activity against highly drug-resistant HIV-1 variants): 0.21 to 4.5 nM

Source: PMC7425579 (Journal of medicinal chemistry, 2020)
